As usually defined, the IC90 is the concentration needed for an effect of 90%. One may read the EC50 as the concentration that produces a half-maximal response.

Among the data in patent US20240228488A1 (TAKEDA PHARMACEUTICAL COMPANY LIMITED, priority 2021, published 2024) are IC90 and EC50 values, retold here.

The target in one test is T1, plasma kallikrein (Homo sapiens, UniProt P03952).
T1 construct: from tissue
In words: Neat human plasma assay, FXIIa contact pathway-activated, PFR-AMC substrate. In kind it is biochemical. The following applies: citrated human plasma 78% final, 10 nM human FXIIa, 100 μM PFR-AMC; read-out: Human Plasma Assay: IC90. The method, boiled down:
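Compound inhibition of plasma kallikrein measured as PFR-AMC (100 μM) cleavage rate over 5 min at room temperature in 78% citrated human plasma activated with 10 nM FXIIa (Tris pH 7.5 buffer). IC50/IC90 from 4-parameter fit of rate versus inhibitor concentration.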

Test [1] concerns the target human activated kallikrein enzyme (Homo sapiens, UniProt P03952). In words: Plasma kallikrein inhibition, fluorogenic PFR-AMC substrate, 500 pM activated kallikrein format. In kind it is biochemical. The following applies: 500 pM activated kallikrein, 300 uM PFR-AMC, 30 min preincubation, 10 min reaction; read-out: Primary Dose Response Assay: Average EC50. The essentials: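 Fluorogenic readout (ex 380 / em 460 nm) after 10 min room-temperature reaction with 300 uM Pro-Phe-Arg-AMC substrate, following 30 min preincubation of inhibitors with 500 pM enzyme. Buffer: Tris pH 7.5, EDTA, NaCl, PEG-400, Triton X-100. Values given as EC50 ranges.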

Chain of human activated kallikrein enzyme (P03952 391-638 limits assumed): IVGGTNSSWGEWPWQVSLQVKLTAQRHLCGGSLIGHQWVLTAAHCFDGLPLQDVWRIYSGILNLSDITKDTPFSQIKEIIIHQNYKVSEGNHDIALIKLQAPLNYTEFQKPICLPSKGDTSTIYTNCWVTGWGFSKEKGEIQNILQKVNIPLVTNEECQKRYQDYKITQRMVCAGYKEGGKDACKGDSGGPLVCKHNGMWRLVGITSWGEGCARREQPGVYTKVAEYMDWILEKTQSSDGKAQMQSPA
Chain of human activated kallikrein enzyme (P03952 20-390 partner limits assumed): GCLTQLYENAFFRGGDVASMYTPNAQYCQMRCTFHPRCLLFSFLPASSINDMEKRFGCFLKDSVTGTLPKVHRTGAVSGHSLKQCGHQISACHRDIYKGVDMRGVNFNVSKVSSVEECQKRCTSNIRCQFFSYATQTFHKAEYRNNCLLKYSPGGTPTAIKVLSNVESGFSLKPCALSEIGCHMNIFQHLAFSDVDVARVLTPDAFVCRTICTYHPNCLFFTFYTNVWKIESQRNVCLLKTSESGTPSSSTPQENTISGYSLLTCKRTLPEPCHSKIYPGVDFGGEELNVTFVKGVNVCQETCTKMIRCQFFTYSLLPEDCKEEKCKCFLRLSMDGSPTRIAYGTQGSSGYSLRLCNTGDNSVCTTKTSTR
T1 sequence (P03952 391-638 limits assumed): as the sequence (P03952 391-638 limits assumed) above
T1 sequence (P03952 20-390 partner limits assumed): as the sequence (P03952 20-390 partner limits assumed) above

On to `CN1C(=O)CN(c2cc(C3CC3)cn3cc([C@H]4C[C@H](O)CN4c4cc(NC(=O)[C@H]5C[C@@H]5c5cccc(Cl)c5)ncn4)nc23)C1=O` [Example 480, (1S,2S)-2-(3-chlorophenyl)-N-(6-((2R,4S)-2-(6-cyclopropyl-8-(3-methyl-2,4-dioxoimidazolidin-1-yl)imidazo[1,2-a]pyridin-2-yl)-4-hydroxypyrrolidin-1-yl)pyrimidin-4-yl)cyclopropane-1-carboxamide], for which the IC90 at plasma kallikrein was less than 400 nM. For the same compound, the concentration for a half-maximal effect (EC50) in test [1] is 1 to 10 nM.
Regarding `O=C(Nc1cc(NCc2cn3cc(C4CC4)cc(C(=O)N4CCNCC4)c3n2)ncn1)[C@H]1C[C@@H]1c1cccc(Cl)c1` [Example 304, (1S,2S)-2-(3-chlorophenyl)-N-(6-(((6-cyclopropyl-8-(piperazine-1-carbonyl)imidazo[1,2-a]pyridin-2-yl)methyl)amino)pyrimidin-4-yl)cyclopropane-1-carboxamide], the IC90 at plasma kallikrein was less than 400 nM. Moreover, in test [1], the EC50 is less than 1 nM.
Regarding `CC(O)c1cc(C2CC2)cn2cc(CNc3ccnc(NC(=O)[C@H]4C[C@@H]4c4cccc(Cl)c4)c3)nc12` (stereo partly drawn) [Example I-236, (1S,2S)-2-(3-chlorophenyl)-N-(4-(((6-cyclopropyl-8-(1-hydroxyethyl)imidazo[1,2-a]pyridin-2-yl)methyl)amino)pyridin-2-yl)cyclopropane-1-carboxamide], at plasma kallikrein, the IC90 is more than 48000 nM. Also, the EC50 in test [1] was less than 1 nM.
Take `Cc1ccnc([C@H]2C[C@@H]2C(=O)Nc2cc(NCc3cn4cc(C5CC5)cc(N5CC(=O)N(C)C5=O)c4n3)nc(C(F)F)n2)n1` (racemic) [Example 411, rac-(1S*,2S*)-N-(6-(((6-cyclopropyl-8-(3-methyl-2,4-dioxoimidazolidin-1-yl)imidazo[1,2-a]pyridin-2-yl)methyl)amino)-2-(difluoromethyl)pyrimidin-4-yl)-2-(4-methylpyrimidin-2-yl)cyclopropane-1-carboxamide]: the IC90 on plasma kallikrein was less than 400 nM. In test [1], the concentration for a half-maximal effect (EC50) was less than 1 nM.
In the same order, the values of `Cc1ccnc([C@H]2C[C@@H]2C(=O)Nc2cc(NCc3cn4cc(C5CC5)cc(N5CC(=O)N(C6CC6)C5=O)c4n3)ncn2)n1` [Example 384, (1S,2S)-N-(6-(((6-cyclopropyl-8-(3-cyclopropyl-2,4-dioxoimidazolidin-1-yl)imidazo[1,2-a]pyridin-2-yl)methyl)amino)pyrimidin-4-yl)-2-(4-methylpyrimidin-2-yl)cyclopropane-1-carboxamide] are less than 400 nM and less than 1 nM.
Consider `COCc1nc(NCc2cn3cc(C4CC4)ccc3n2)cc(NC(=O)[C@@H]2C[C@H]2c2cccc(Cl)c2)n1` (racemic) [Example 108, rac-(1S*,2S*)-2-(3-chlorophenyl)-N-(6-(((6-cyclopropylimidazo[1,2-a]pyridin-2-yl)methyl)amino)-2-(methoxymethyl)pyrimidin-4-yl)cyclopropane-1-carboxamide], for which the IC90 at plasma kallikrein lay within 10000 to 48000 nM. In addition, in test [1], the 50% effective concentration (EC50) is 1 to 10 nM.
In the same order, the values of `Cc1ccnc([C@H]2C[C@@H]2C(=O)Nc2cc(NCc3cn4cc(C5CC5)cc(N5CC(=O)N(C)C5=O)c4n3)c(C(F)(F)F)nn2)n1` [Example I-640, (1S,2S)—N-(5-(((6-cyclopropyl-8-(3-methyl-2,4-dioxoimidazolidin-1-yl)imidazo[1,2-a]pyridin-2-yl)methyl)amino)-6-(trifluoromethyl)pyridazin-3-yl)-2-(4-methylpyrimidin-2-yl)cyclopropane-1-carboxamide] are less than 400 nM and less than 1 nM.
In the same order, the values of `O=C(O)CN1CCN(c2cc(C3CC3)cn3cc(CNc4ccnc(NC(=O)[C@H]5C[C@@H]5c5cccc(Cl)c5)c4)nc23)CC1` [Example 602, 2-(4-(2-(((2-((1S,2S)-2-(3-chlorophenyl)cyclopropane-1-carboxamido)pyridin-4-yl)amino)methyl)-6-cyclopropylimidazo[1,2-a]pyridin-8-yl)piperazin-1-yl)acetic acid] are less than 400 nM and less than 1 nM.
For the compound `CS(=O)(=O)Nc1cc(C2CC2)cn2cc(CNc3ccnc(NC(=O)[C@H]4C[C@@H]4c4cccc(Cl)c4)c3)nc12` [Example 126, (1S,2S)-2-(3-chlorophenyl)-N-(4-(((6-cyclopropyl-8-(methylsulfonamido)imidazo[1,2-a]pyridin-2-yl)methyl)amino)pyridin-2-yl)cyclopropane-1-carboxamide], the 90% effect concentration (IC90) on plasma kallikrein was in the range of 10000 to 48000 nM. In test [1], the EC50 was less than 1 nM.
Consider `O=C(Nc1cc(NCc2cn3cc(C4CC4)ccc3n2)ccn1)[C@H]1C[C@@H]1c1cc(Cl)cs1` (racemic) [Example I-219, rac-(1S*,2S*)-2-(4-chlorothiophen-2-yl)-N-(4-(((6-cyclopropylimidazo[1,2-a]pyridin-2-yl)methyl)amino)pyridin-2-yl)cyclopropane-1-carboxamide], for which the 90% effect concentration (IC90) on plasma kallikrein is 10000 to 48000 nM. The concentration giving a half-maximal response (EC50) in test [1] fell in the range of 1 to 10 nM.
On to `Cc1ccnc([C@H]2C[C@@H]2C(=O)Nc2cc(NCc3cn4cc(C5CC5)cc(N5CC(=O)N(CCO)C5=O)c4n3)ncn2)n1` [Example 464, (1S,2S)-N-(6-(((6-cyclopropyl-8-(3-(2-hydroxyethyl)-2,4-dioxoimidazolidin-1-yl)imidazo[1,2-a]pyridin-2-yl)methyl)amino)pyrimidin-4-yl)-2-(4-methylpyrimidin-2-yl)cyclopropane-1-carboxamide], for which, at plasma kallikrein, the IC90 is less than 400 nM. Moreover, the EC50 in test [1] was less than 1 nM.
With `Cc1ccnc([C@H]2C[C@@H]2C(=O)Nc2cc(OCc3cn4cc(C5CC5)cc(N5CC(=O)N(CCN(C)C)C5=O)c4n3)nc(C)n2)n1` [Example 564, (1S,2S)-N-(6-((6-cyclopropyl-8-(3-(2-(dimethylamino)ethyl)-2,4-dioxoimidazolidin-1-yl)imidazo[1,2-a]pyridin-2-yl)methoxy)-2-methylpyrimidin-4-yl)-2-(4-methylpyrimidin-2-yl)cyclopropane-1-carboxamide], the IC90 on plasma kallikrein was less than 400 nM. Further, in test [1], the concentration giving a half-maximal response (EC50) is less than 1 nM.
Turning to `Cc1ccnc([C@H]2C[C@@H]2C(=O)Nc2cc(NC(C)c3cn4cc(C5CC5)cc(N5CC(=O)N(CCO)C5=O)c4n3)nc(C3CC3)n2)n1` (stereo partly drawn) [Example 460, (1S,2S)—N-(2-cyclopropyl-6-((1-(6-cyclopropyl-8-(3-(2-hydroxyethyl)-2,4-dioxoimidazolidin-1-yl)imidazo[1,2-a]pyridin-2-yl)ethyl)amino)pyrimidin-4-yl)-2-(4-methylpyrimidin-2-yl)cyclopropane-1-carboxamide], the 90% effect concentration (IC90) on plasma kallikrein was in the range of 1500 to 10000 nM. In addition, in test [1], the EC50 lay in the range of 1 to 10 nM.
As for `CN1CCN(c2cc(C3CC3)cn3cc(CNc4ccnc(NC(=O)[C@H]5C[C@@H]5c5cccc(Cl)c5)c4)nc23)CC1=O` [Example 130, (1S,2S)-2-(3-chlorophenyl)-N-(4-(((6-cyclopropyl-8-(4-methyl-3-oxopiperazin-1-yl)imidazo[1,2-a]pyridin-2-yl)methyl)amino)pyridin-2-yl)cyclopropane-1-carboxamide], the IC90 on plasma kallikrein fell in the range of 400 to 1500 nM. In addition, the EC50 in test [1] is less than 1 nM.
As to `CN1C(=O)CN(c2cc(C3CC3)cn3cc(CNc4cc(NC(=O)[C@H]5C[C@@H]5c5nccc(CF)n5)ncn4)nc23)C1=O` (racemic) [Example I-163, rac-(1S*,2S*)-N-(6-(((6-cyclopropyl-8-(3-methyl-2,4-dioxoimidazolidin-1-yl)imidazo[1,2-a]pyridin-2-yl)methyl)amino)pyrimidin-4-yl)-2-(4-(fluoromethyl)pyrimidin-2-yl)cyclopropane-1-carboxamide], on plasma kallikrein, the IC90 was in the range of 400 to 1500 nM. The EC50 in test [1] is less than 1 nM.
Take `CC(=O)c1cc(C2CC2)cn2cc(CNc3ccnc(NC(=O)[C@H]4C[C@@H]4c4cccc(Cl)c4)c3)nc12` [Example I-237, (1S,2S)-N-(4-(((8-acetyl-6-cyclopropylimidazo[1,2-a]pyridin-2-yl)methyl)amino)pyridin-2-yl)-2-(3-chlorophenyl)cyclopropane-1-carboxamide]: the IC90 at plasma kallikrein lay within 1500 to 10000 nM. In addition, the EC50 in test [1] is less than 1 nM.
In the same order, the values of `Cc1ccnc([C@H]2C[C@@H]2C(=O)Nc2cc(N(CC(=O)OCc3ccccc3)Cc3cn4cc(C5CC5)cc(N5CC(=O)N(C)C5=O)c4n3)ncn2)n1` [Example 371, benzyl N-((6-cyclopropyl-8-(3-methyl-2,4-dioxoimidazolidin-1-yl)imidazo[1,2-a]pyridin-2-yl)methyl)-N-(6-((1S,2S)-2-(4-methylpyrimidin-2-yl)cyclopropane-1-carboxamido)pyrimidin-4-yl)glycinate] are 1500 to 10000 nM and 1 to 10 nM.
In the same order, the values of `Cc1ccnc([C@H]2C[C@@H]2C(=O)Nc2cc(NC(C)c3cn4cc(C5CC5)cc(N5CC(=O)N(C)C5=O)c4n3)nc(C)n2)n1` (stereo partly drawn) [Example 454, (1S,2S)—N-(6-((1-(6-cyclopropyl-8-(3-methyl-2,4-dioxoimidazolidin-1-yl)imidazo[1,2-a]pyridin-2-yl)ethyl)amino)-2-methylpyrimidin-4-yl)-2-(4-methylpyrimidin-2-yl)cyclopropane-1-carboxamide] are 400 to 1500 nM and less than 1 nM.
Take `N#Cc1ccc(Cl)cc1[C@H]1C[C@@H]1C(=O)Nc1cc(NCc2cn3cc(C4CC4)cc(N4CCCC4=O)c3n2)ccn1` (racemic) [Example 79, rac-(1S*2S*)-2-(5-chloro-2-cyanophenyl)-N-(4-(((6-cyclopropyl-8-(2-oxopyrrolidin-1-yl)imidazo[1,2-a]pyridin-2-yl)methyl)amino)pyridin-2-yl)cyclopropane-1-carboxamide]: the IC90 at plasma kallikrein lay in the range of 400 to 1500 nM. Moreover, the EC50 in test [1] is less than 1 nM.
